From US6808930B1, “Therapeutic agents” (priority 1997, dated 2004)

Test system: L1210, A549 and HRTEC nuclei
Test: DNA fragmentation in isolated nuclei
Assay type: cell-based
Details: L1210 and A549 nuclei incubated with Ca2+ inhibitors
Procedure: Nuclei were purified from L1210, A549 and HRTEC cells and incubated with low concentrations of MAL (0.2 and 0.4 mg/ml). The formation of HMW and oligonucleosome length DNA fragments was examined.
A549, L1210 and HRTEC nuclei were isolated from homogenised cells. Pellet 1 from the homogenisation was washed twice in nuclei buffer for 20 min at 100×g and suspended in nuclei buffer for experiments. Rat liver nuclei was isolated.
A549, L1210 or HRTEC nuclei in suspension were placed in individual wells in a 24-well plate ([…]), mixed with MAL, α-lactalbumin, lactoferrin or BSA (100 μl in nucleus buffer), incubated at 37° C. for 1 hour (L1210,) or 2 hours (A549 and HRTEC), harvested by aspiration, analysed for DNA fragmentation as described above.

In the case of `CC(=O)OCOC(=O)CN(CC(=O)OCOC(C)=O)c1ccccc1OCCOc1ccccc1N(CC(=O)OCOC(C)=O)CC(=O)OCOC(C)=O` [BAPTA/AM, reference compound], the “effect on MAL induced DNA fragmentation” value is reported as “completely blocked the DNA fragmentation”.

`O=C(O)CN(CCN(CC(=O)O)CC(=O)O)CC(=O)O` [EDTA, reference compound] was tested, and the “effect on MAL induced DNA fragmentation” value was “completely blocked the DNA fragmentation”.
